Here are results for 4 compounds from ChEMBL document CHEMBL4334550, “Toward Orally Absorbed Prodrugs of the Antibiotic Aztreonam. Design of Novel Prodrugs of Sulfate Containing Drugs. Part 2” (ACS Med Chem Lett, 2020).

As a reminder, the bioavailability is the share of a dose that reaches the circulation, judged against a reference dose that is usually intravenous. Low values mean little systemic uptake, high ones much systemic uptake.

The structures appear in SMILES notation. A value given as a limit tells only on which side of the number the result lay.

The target of data set [1] is T1, Liver carboxylesterase 1 (Homo sapiens, UniProt P23141).
T1 sequence (P23141 whole entry): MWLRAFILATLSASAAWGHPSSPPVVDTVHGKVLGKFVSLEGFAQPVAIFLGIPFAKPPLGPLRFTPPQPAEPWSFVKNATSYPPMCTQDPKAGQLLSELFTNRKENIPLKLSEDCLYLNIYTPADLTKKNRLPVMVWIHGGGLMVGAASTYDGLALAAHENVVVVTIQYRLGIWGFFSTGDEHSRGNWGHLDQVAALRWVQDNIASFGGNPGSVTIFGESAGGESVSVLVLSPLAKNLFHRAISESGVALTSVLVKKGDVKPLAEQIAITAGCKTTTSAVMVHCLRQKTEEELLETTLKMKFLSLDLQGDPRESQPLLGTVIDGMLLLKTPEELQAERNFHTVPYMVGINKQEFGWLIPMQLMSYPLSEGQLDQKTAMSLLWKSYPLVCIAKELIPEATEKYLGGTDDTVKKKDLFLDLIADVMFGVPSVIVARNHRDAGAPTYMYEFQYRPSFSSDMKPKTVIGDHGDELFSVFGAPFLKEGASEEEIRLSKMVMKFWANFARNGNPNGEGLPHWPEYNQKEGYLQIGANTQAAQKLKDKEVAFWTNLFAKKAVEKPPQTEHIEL
Briefly: Prodrug conversion assessed as CES1 (unknown origin) mediated aztreonam release in 2.5% acetonitrile in 0.05M citrate buffer at 0.5 mg/ml at pH 4.7 at 37degC after 10 mins in presence of 150 units/ml of CES1 enzyme by HPLC analysis. In kind it is ADME. The settings on record: pH 4.7, 10 min.

For data set [2], the target named is T1, Liver carboxylesterase 1. Briefly: Prodrug conversion assessed as CES1 (unknown origin) mediated aztreonam release in 2.5% acetonitrile in 0.05M citrate buffer at 0.5 mg/ml at pH 4.7 at 37degC after 20 mins in presence of 150 units/ml of CES1 enzyme by HPLC analysis. As to conditions: pH 4.7, 20 min. In kind it is ADME.
Data set [3] addresses T1, Liver carboxylesterase 1. The data set is described as follows: Prodrug conversion assessed as CES1 (unknown origin) mediated aztreonam release in 2.5% acetonitrile in 0.05M citrate buffer at 0.5 mg/ml at pH 4.7 at 37degC measured immediately in presence of 150 units/ml of CES1 enzyme by HPLC analysis. In kind it is ADME. As to conditions: BLD = below limit of detection.

Data set [4] has as its target T1, Liver carboxylesterase 1. The data set is described as follows: Prodrug conversion assessed as CES1 (unknown origin) mediated aztreonam release in 2.5% acetonitrile in 0.05M citrate buffer at 0.5 mg/ml at pH 4.7 at 37degC after 2 mins in presence of 150 units/ml of CES1 enzyme by HPLC analysis. In kind it is ADME. The settings on record: pH 4.7, 2 min.
Data set [5] is described as follows: Stability of the compound in 2.5% acetonitrile in 0.05M citrate buffer assessed as aztreonam and beta-lactam ring-opened prodrug intermediate release at 0.5 mg/ml at pH 4.7 at 37degC by HPLC analysis. In kind it is physicochemical.
For data set [6], the target named is T1, Liver carboxylesterase 1. The data set is described as follows: Prodrug conversion assessed as CES1 (unknown origin) mediated aztreonam and beta-lactam ring-opened prodrug intermediate release in 2.5% acetonitrile in 0.05M citrate buffer at 0.5 mg/ml at pH 4.7 at 37degC in presence of CES1 at lower concentration by HPLC analysis. In kind it is ADME.
Data set [7] addresses T1, Liver carboxylesterase 1. The data set is described as follows: Prodrug conversion assessed as CES1 (unknown origin) mediated aztreonam release in 2.5% acetonitrile in 0.05M citrate buffer at 0.5 mg/ml at pH 4.7 at 37degC after 5 mins in presence of 150 units/ml of CES1 enzyme by HPLC analysis. As to conditions: pH 4.7, 5 min. In kind it is ADME.
For data set [8], the target named is T1, Liver carboxylesterase 1. Briefly: Prodrug conversion assessed as CES1 (unknown origin) mediated aztreonam release in 2.5% acetonitrile in 0.05M citrate buffer at 0.5 mg/ml at pH 4.7 at 37degC after 30 mins in presence of 150 units/ml of CES1 enzyme by HPLC analysis. In kind it is ADME. The settings on record: pH 4.7, 0.5 h.
The target of data set [9] is T1, Liver carboxylesterase 1. The data set is described as follows: Prodrug conversion assessed as CES1 (unknown origin) mediated aztreonam release in 2.5% acetonitrile in 0.05M citrate buffer at 0.5 mg/ml at pH 4.7 at 37degC after 1 min in presence of 150 units/ml of CES1 enzyme by HPLC analysis. As to conditions: pH 4.7, 1 min, BLD = below limit of detection. In kind it is ADME.

A short description of data set [10]: Oral bioavailability in human at 500 mg administered twice as 250 mg tablet formulation measured 16 hrs post dose. In kind it is ADME, organism-based. As to conditions: in vivo.
Data set [11] is described as follows: Oral bioavailability in human at 500 mg administered as solution measured 16 hrs post dosing. The settings on record: in vivo. In kind it is ADME, organism-based.

As for `CCOC(=O)CCC(C)(C)COS(=O)(=O)N1C(=O)[C@@H](NC(=O)/C(=N\OC(C)(C)C(=O)O)c2csc(N)n2)[C@@H]1C.O=C(O)C(F)(F)F`, the Drug metabolism on Liver carboxylesterase 1 [1] is 86%; at Liver carboxylesterase 1 [2] it was 90%; at Liver carboxylesterase 1 [3] it was “Bld”; at Liver carboxylesterase 1 [4] it was 45%; at Liver carboxylesterase 1 [6], “Metabolite_Detected”; on Liver carboxylesterase 1 [7] it was 76%. The Drug metabolism at Liver carboxylesterase 1 [8] is listed as 90%. Further, the Stability result in data set [5] is on record as “Unstable”.
On to `CCOC(=O)C(C)(C)COS(=O)(=O)N1C(=O)[C@@H](NC(=O)/C(=N\OC(C)(C)C(=O)O)c2csc(N)n2)[C@@H]1C.O=C(O)C(F)(F)F`, for which the Drug metabolism entry is reported as “Bld” on Liver carboxylesterase 1 [9]; 14% at Liver carboxylesterase 1 [1]; 23% on Liver carboxylesterase 1 [2]; “Bld” at Liver carboxylesterase 1 [3]; 4% at Liver carboxylesterase 1 [4]; “Metabolite_Detected” on Liver carboxylesterase 1 [6]. The Drug metabolism at Liver carboxylesterase 1 [7] stood at 8%; at Liver carboxylesterase 1 [8] it was 28%. The Stability result in [5] is reported as “Unstable”.
On to `C[C@H]1[C@H](NC(=O)/C(=N\OC(C)(C)C(=O)O)c2csc(N)n2)C(=O)N1S(=O)(=O)OCC(C)(C)CCOC(=O)C(C)(C)C.O=C(O)C(F)(F)F`, for which the Drug metabolism at Liver carboxylesterase 1 [1] is > 95%; on Liver carboxylesterase 1 [2] it was > 95%; at Liver carboxylesterase 1 [3], “Bld”; at Liver carboxylesterase 1 [4] it was > 95%; at Liver carboxylesterase 1 [6], “Metabolite_Detected”; on Liver carboxylesterase 1 [7], > 95%. For the same compound, at Liver carboxylesterase 1 [8], the Drug metabolism is > 95%. Besides, the Stability entry in data set [5] is reported as “Unstable”.
`C[C@H]1[C@H](NC(=O)/C(=N\OC(C)(C)C(=O)O)c2csc(N)n2)C(=O)N1S(=O)(=O)O` [AZTREONAM]: the bioavailability in data set [10] and in data set [11] was < 1% in each case.
